The values below come from patent US20180015100A1, “COMBINATION PRODUCTS FOR THE TREATMENT OF BACTERIAL INFECTIONS AND METHODS OF PRODUCING OR DOSING OF SAME” (priority 2016, published 2018).

Values after ≈ are worked out from the molar mass of the structure shown. Like-named read-outs stand apart in the source and are kept apart here.

Data set [1] relates to Escherichia coli isolates with an ESBL-phenotype. As to the kind of experiment: In vitro MIC90 of a panel of approved antibiotics, US surveillance program. The format is cell-based.
Data set [2] concerns 385 Escherichia coli and 126 Klebsiella pneumoniae isolates. As to the kind of experiment: MIC, MIC50 and MIC90 by reference broth microdilution against 511 UTI/bloodstream isolates (USA and Europe 2014-2015). The following applies: 511 isolates; for EUCAST % I: EUCAST 2016 criteria; for MIC90: read-out: MIC90. The format is cell-based. A general note: Broth dilution looks for growth in wells or tubes with falling amounts of substance.

For data set [3] the following is noted: plasma; cited from earlier work.
The subject of data set [4] is Citrobacter freundii isolates. Description: MIC of cephalosporins alone or with clavulanate/tazobactam. The format is cell-based. To be noted: clavulanate 2:1, tazobactam 4 μg/mL.
Data set [5] has as its system Klebsiella oxytoca isolates. The data set is described as above. In kind it is cell-based. The following applies: clavulanate 2:1, tazobactam 4 μg/mL.
The test system of data set [6] is Klebsiella pneumoniae isolates. The data set is described as above. In kind it is cell-based. To be noted: clavulanate 2:1, tazobactam 4 μg/mL.
For data set [7], the system named is Enterobacter cloacae isolates. The data set is described as above. The format is cell-based. The following applies: clavulanate 2:1, tazobactam 4 μg/mL.
In data set [8] the test system is Escherichia coli isolates. The description is as above. In kind it is cell-based. The following applies: clavulanate 2:1, tazobactam 4 μg/mL.
For data set [9], the system named is beta-lactamase producing E. coli (CTX-M-55; CTX-M-15, TEM-OSBL). As to the kind of experiment: microbe, parasite or virus in culture. To be noted: Escherichia coli. In kind it is cell-based.
Data set [10] relates to Enterobacter aerogenes isolates. Description: MIC of cephalosporins alone or with clavulanate/tazobactam. The format is cell-based. The following applies: Klebsiella aerogenes, clavulanate 2:1, tazobactam 4 μg/mL.
A further data set is described as follows: clinical. To be noted: human, in vivo. How it is done:
The twice daily divided dose of study drug was administered approximately 12 hours apart. All subjects randomized to placebo received placebo oral capsules that were identical to study drug capsules and given according to the same dosing schedule and same quantity of capsules as subjects randomized to receive ceftibuten and clavulanate concurrently. All SDs, as well as the first daily dose of the MD period on […] were given while the subject was fasted. […] In addition, blood samples for assessment of trough (pre-dose) concentrations were collected on day 7, day 8, day 9, and alternate days thereafter through study day 17. […] Peak concentration (Cmax), time at which Cmax was observed (Tmax), area under the concentration-time curve to infinity (AUCinf), percent coefficient of variation (% CV), elimination half-life (T1/2), apparent total clearance of the drug from plasma after oral administration (CL/F), and apparent volume of distribution during terminal phase after non-intravenous administration (Vz/F) were determined. […] Similar to above, six subjects were randomized to receive active drug and two were randomized to receive placebo. […] Safety, tolerability and PK were assessed as described above.

The mark [11] stands for this setting: Escherichia coli, E. coli (n = 124), ESBL-phenotype, read-out: MIC90.
Setting [12] is: E. coli (n = 124), ESBL-phenotype.

Regarding `C[C@@H](O)[C@H]1C(=O)N2C(C(=O)O)=C(S[C@@H]3CN[C@H](CNS(N)(=O)=O)C3)[C@H](C)[C@H]12` [Doripenem], in data set [1] (setting [11]), the MIC90 (as a rule, the lowest concentration that inhibits either 90% of growth or 90% of the strains tested, depending on the study) was at most 0.06 µg/mL.

Turning to `CC(C)(O/N=C(\C(=O)N[C@@H]1C(=O)N2C(C(=O)[O-])=C(C[n+]3ccccc3)CS[C@H]12)c1csc(N)n1)C(=O)O` [Ceftazidime], in data set [1] (setting [11]), the MIC90 was over 32 µg/mL. Besides, in data set [2], the MIC50 (as a rule, the lowest concentration that inhibits either 50% of growth or 50% of the strains tested, depending on the study) came to 16 µg/mL (≈ 29.3 µM); the “EUCAST % I” value was found to be 16.2%; the MIC90 was over 32 µg/mL.

In the case of `O=C1CN(/N=C/c2ccc([N+](=O)[O-])o2)C(=O)N1` [Nitrofurantoin], in data set [2], the MIC50 was 16 µg/mL (≈ 67.2 µM) and the MIC90 turned out to be 256 µg/mL (≈ 1070 µM).

In the case of `O=C(O)[C@H]1/C(=C/CO)O[C@@H]2CC(=O)N21` [Clavulanate, clavulanic acid], in data set [3], the Elimination half-life entry is “approximately 1 h”. In addition, the MIC was determined as 32 µg/mL in data set [4] (ACFR1034 (CTX-M-15, TEM-OSBL)); 32 µg/mL in [4] (ACFR1035 (CTX-M-3, TEM-OSBL)); 32 µg/mL in [5] (AKOX1005 (SHV-2, TEM-1, DHA-1)); 32 µg/mL in data set [5] (AKOX1009 (CTX-M-15)); 32 µg/mL in [6] (AKPN1159 (SHV-12)); 16 µg/mL in data set [6] (AKPN1161 (SHV-7)). In addition, the MIC in [6] (AKPN1162 (CTX-M-15, SHV-12)) was 32 µg/mL; in data set [6] (AKPN1166 (CTX-M-14, SHV-12)), 32 µg/mL; in data set [6] (AKPN1167 (SHV-2)) it was 16 µg/mL; in [7] (AECL1065 (CTX-M-15)) it was 64 µg/mL; in data set [7] (AECL1067 (CTX-M-3)) it was 64 µg/mL; in data set [8] (AECO001 (no ESBL)), 32 µg/mL. In addition, the MIC in [8] (AECO1078 (CTX-M-15)) amounted to 32 µg/mL; in data set [8] (AECO1147 (CTX-M-15)), 32 µg/mL; in [8] (AECO1157 (CTX-M-15, TEM-OSBL)), 32 µg/mL; in [8] (AECO1159 (CTX-M-15)), 32 µg/mL; in data set [8] (AECO1169 (CTX-M-1, TEM-OSBL)), 32 µg/mL; in data set [8] (AECO1172 (CTX-M-14)), 32 µg/mL. In addition, the MIC was over 32 µg/mL in [9], 32 µg/mL in data set [10] (AEAE1027 (CTX-M-14)) and 32 µg/mL in data set [10] (AEAE1029 (CTX-M-15)). Besides, the Tmax (in general, the time from dosing to the highest level) in the data set “clinical” (po, 125 mg, Tmax) turned out to be 60 min. The half-life (in general, the time in which the quantity being followed falls by half) in the data set “clinical” (po, 125 mg, T½) is 46.5 min.

For `C[C@@H](O)[C@H]1C(=O)N2C(C(=O)O)=C(SCCN=CN)C[C@H]12` [Imipenem], the MIC90 in data set [1] (setting [11]) was found to be 0.25 µg/mL (≈ 0.835 µM). Also, in data set [2], the MIC50 was at most 0.12 µg/mL, the “EUCAST % I” value amounted to 2.7% and the MIC90 is 0.5 µg/mL (≈ 1.67 µM).

As for Gentamicin, the MIC90 in data set [1] (setting [12]) was over 8 µg/mL.

As to `C[C@H]1COc2c(N3CCN(C)CC3)c(F)cc3c(=O)c(C(=O)O)cn1c23` [Levofloxacin], in data set [1] (setting [11]), the MIC90 was over 4 µg/mL.

On to `NCC[C@H](O)C(=O)N[C@@H]1C[C@H](N)[C@@H](O[C@H]2O[C@H](CN)[C@@H](O)[C@H](O)[C@H]2O)[C@H](O)[C@H]1O[C@H]1O[C@H](CO)[C@@H](O)[C@H](N)[C@H]1O` [Amikacin], for which the MIC90 in [1] (setting [11]) stood at 8 µg/mL (≈ 13.7 µM).

Regarding `CC1(C)S[C@@H]2[C@H](/N=C/N3CCCCCC3)C(=O)N2[C@H]1C(=O)O` [Mecillinam], in data set [2], the MIC50 was found to be 2 µg/mL (≈ 6.15 µM) and the MIC90 was over 32 µg/mL.

Take Colistin: the MIC90 in [1] (setting [12]) was determined as 0.25 µg/mL.

Turning to `NCC(=O)CCO` [amino ketone metabolite of clavulanate], in “clinical”, the “% of parent exposure” value is “approximately 8.5%”.

As for `C[C@]1(Cn2ccnn2)[C@H](C(=O)O)N2C(=O)C[C@H]2S1(=O)=O` [Tazobactam, tazobactam], the MIC is over 64 µg/mL in [4] (ACFR1034 (CTX-M-15, TEM-OSBL)); over 64 µg/mL in data set [4] (ACFR1035 (CTX-M-3, TEM-OSBL)); over 64 µg/mL in data set [5] (AKOX1005 (SHV-2, TEM-1, DHA-1)); over 64 µg/mL in data set [5] (AKOX1009 (CTX-M-15)); over 64 µg/mL in data set [6] (AKPN1159 (SHV-12)); over 64 µg/mL in data set [6] (AKPN1161 (SHV-7)). In addition, the MIC in data set [6] (AKPN1162 (CTX-M-15, SHV-12)) was over 64 µg/mL; in [6] (AKPN1166 (CTX-M-14, SHV-12)) it was over 64 µg/mL; in data set [6] (AKPN1167 (SHV-2)), over 64 µg/mL; in data set [7] (AECL1065 (CTX-M-15)) it was over 64 µg/mL; in data set [7] (AECL1067 (CTX-M-3)), over 64 µg/mL; in data set [8] (AECO001 (no ESBL)), over 64 µg/mL. The MIC is over 64 µg/mL in [8] (AECO1078 (CTX-M-15)); over 64 µg/mL in data set [8] (AECO1147 (CTX-M-15)); over 64 µg/mL in data set [8] (AECO1157 (CTX-M-15, TEM-OSBL)); over 64 µg/mL in [8] (AECO1159 (CTX-M-15)); over 64 µg/mL in data set [8] (AECO1169 (CTX-M-1, TEM-OSBL)); over 64 µg/mL in data set [8] (AECO1172 (CTX-M-14)). Moreover, the MIC in [10] (AEAE1027 (CTX-M-14)) and in [10] (AEAE1029 (CTX-M-15)) was over 64 µg/mL in each case.

The compound `CN(C)c1cc(NC(=O)CNC(C)(C)C)c(O)c2c1C[C@H]1C[C@H]3[C@H](N(C)C)C(O)=C(C(N)=O)C(=O)[C@@]3(O)C(O)=C1C2=O` [Tigecycline] showed an MIC90 in [1] (Escherichia coli) of 0.25 µg/mL (≈ 0.427 µM).

For the compound `NC[C@H]1O[C@H](O[C@H]2[C@H](O)[C@@H](O[C@H]3O[C@H](CO)[C@@H](O)[C@H](N)[C@H]3O)[C@H](N)C[C@@H]2N)[C@H](N)C[C@@H]1O` [Tobramycin], the MIC90 in [1] (setting [11]) was over 8 µg/mL.

With `C[C@H]1[C@H](NC(=O)/C(=N\OC(C)(C)C(=O)O)c2csc(N)n2)C(=O)N1S(=O)(=O)O` [Aztreonam], the MIC90 in [1] (setting [11]) was over 16 µg/mL. Also, in data set [2], the MIC50 was over 16 µg/mL, the “EUCAST % I” value came out at 13.9% and the MIC90 was over 16 µg/mL.

Take `CO/N=C(\C(=O)N[C@@H]1C(=O)N2C(C(=O)O)=C(CSc3nc(=O)c(=O)[nH]n3C)CS[C@H]12)c1csc(N)n1` [Ceftriaxone]: in data set [1] (E. coli isolates with ESBL-producing phenotype), the “MIC90 relative to CLSI/EUCAST breakpoint for susceptibility” value is on record as “above the breakpoint for susceptibility”. Further, the MIC90 in data set [1] (setting [11]) was over 8 µg/mL. In data set [2], the MIC50 is over 8 µg/mL, the “EUCAST % I” value stood at 1.2% and the MIC90 was over 8 µg/mL.
